Reference: PubChem BioAssay (NCI)
Where “and” joins values, the source holds several entries; their conditions need not be identical. Identical values can stand only once.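 How tested: cells in 96-well plates exposed to compound for 48 hours at five concentrations. GI50 marks 50% less growth. TGI: concentration producing complete growth inhibition.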

How the values were obtained:
Assay in all cases: inhibition of tumour cell growth, NCI panel, 48 h
[1] = tested on: 786-0 renal
[2] = tested on: A549 NSCLC
[3] = tested on: HCT-15 colon
[4] = tested on: HL-60(TB) leukemia
[5] = tested on: M14 melanoma
[6] = tested on: NCI-H226 lung
[7] = tested on: NCI-H23 lung
[8] = tested on: NCI-H460 lung
[9] = tested on: SNB-19 CNS
[10] = tested on: SW-620 colon
[11] = tested on: NCI-H522 lung
[12] = tested on: HS 578T breast

Structure (SMILES)	TGI [1]	TGI [2]	TGI [3]	TGI [4]	TGI [5]	TGI [6]	TGI [7]	TGI [8]	TGI [9]	TGI [10]	TGI [11]	TGI [12]	GI50 [2]	GI50 [6]	GI50 [7]	GI50 [8]
N#CNC(=NCCc1c[nH]c2ccccc12)Oc1ccccc1	> 100 µM	> 100 µM	> 100 µM	> 100 µM	> 100 µM	> 100 µM	> 100 µM	> 100 µM	> 100 µM	> 100 µM	–	–	–	–	–	–
CC1=CC2c3cccc4[nH]cc(c34)CC2N(C)C1 (configuration not stated)	–	> 100 µM	> 100 µM	> 100 µM	–	> 100 µM	> 100 µM	> 100 µM	> 100 µM	> 100 µM	> 100 µM	–	–	–	–	–
COC1=C(C)C(=O)c2c(cc3c(c2O)C(C)(CCC=C(C)C)C(C)O3)C1=O (configuration not stated)	> 100 µM	39.8 µM	> 57.2 µM	> 100 µM	55.7 µM	37.5 µM	68.5 µM	27.2 µM	34.5 µM	> 100 µM	> 100 µM	–	–	–	–	–
COC(=O)CC1c2ccccc2N2C(=O)Cc3c([nH]c4ccccc34)C12 (configuration not stated)	> 100 µM	> 100 µM	> 100 µM	–	> 100 µM	> 100 µM	> 100 µM	> 100 µM	> 100 µM	> 100 µM	> 100 µM	96.2 µM	–	–	–	–
Cc1nc2sccn2c1/C=C1/C(=O)Nc2cccc(Cl)c21	> 100 µM	> 100 µM	> 100 µM	> 100 µM	> 100 µM	–	> 100 µM	> 100 µM	> 100 µM	> 100 µM	> 100 µM	> 100 µM	–	–	–	–
CC(=O)OC(C)(C)CCC(=O)[C@](C)(O)[C@H]1[C@H](O)C[C@@]2(C)[C@@H]3CCc4c(cc(OC5OC(CO)C(O)C(O)C5O)c(O)c4C)C3(C)C(=O)C[C@]12C (some centres not stated)	> 100 µM	> 100 µM	> 100 µM	–	> 100 µM	> 100 µM	> 100 µM	> 100 µM	> 100 µM	> 100 µM	> 100 µM	–	–	–	–	–
COc1cc(C2c3cc4c(cc3[C@@H](NCCN3CCOCC3)C3COC(=O)[C@H]23)OCO4)cc(OC)c1O (some centres not stated)	5.11 µM and 7.93 µM	2.64 µM and 4.28 µM	15.7 µM and 14.2 µM	–	11.7 µM and > 17.5 µM	1.29 µM and 1.64 µM	4.89 µM and 7.21 µM	1.26 µM and 2.4 µM	> 75 µM	18.5 µM and > 17.5 µM	13.1 µM and 9.66 µM	–	0.314 µM and 0.761 µM	0.155 µM and 0.385 µM	1.17 µM and 2.45 µM	0.051 µM and 0.174 µM
CN(Cc1cnc2c(N)nc(N)nc2n1)c1ccc(Cl)cc1	–	–	> 100 µM	> 100 µM	> 100 µM	32.5 µM	> 100 µM	> 100 µM	> 100 µM	> 100 µM	–	> 100 µM	–	–	–	–
CC(C)NC(=O)OCc1c2c(n(C)c1COC(=O)NC(C)C)-c1ccccc1CC2	–	89.9 µM	27.2 µM	> 32 µM	–	31.4 µM	19.7 µM	28.8 µM	35.2 µM	26 µM	18.1 µM	–	–	–	–	–
c1ccc2c(c1)OC(N1CCCC1)c1cnc(N3CCOCC3)nc1-2 (configuration not stated)	> 100 µM	> 100 µM	> 100 µM	> 100 µM	> 100 µM	> 100 µM	30.9 µM	> 100 µM	> 100 µM	> 100 µM	–	> 100 µM	–	–	–	–
COc1ccccc1C1c2cc3c(cc2OC(N2CCOCC2)C1C)OCO3 (configuration not stated)	42.2 µM	47.3 µM	41.5 µM	–	38.7 µM	–	58.7 µM	40.7 µM	37.8 µM	50.3 µM	30.1 µM	39 µM	–	–	–	–
COc1cccc(/C=C2\S/C(=N/Nc3nc(-c4ccc([N+](=O)[O-])cc4)cs3)NC2=O)c1O	38.9 µM	39.6 µM	33.9 µM	> 100 µM	33.2 µM	47.3 µM	33.5 µM	42 µM	52.9 µM	46.1 µM	–	74.1 µM	–	–	–	–
Cc1ccc(C(=O)N/N=C(\N=Nc2ccc(C(=O)O)cc2)c2ccc(N(CCC#N)CCC#N)cc2C)cc1	> 100 µM	> 100 µM	> 100 µM	> 100 µM	> 100 µM	> 100 µM	> 100 µM	> 100 µM	> 100 µM	> 100 µM	–	–	–	–	–	–
O=C(O)C1CCCCN1c1ccccc1[N+](=O)[O-] (configuration not stated)	–	> 100 µM	> 100 µM	> 100 µM	> 100 µM	> 100 µM	> 100 µM	> 100 µM	> 100 µM	> 100 µM	> 100 µM	–	–	–	–	–
COc1cc2c(c(OC)c1OC)-c1ccc(SC)cc1C(O)CC2 (configuration not stated)	> 100 µM	34.6 µM	–	< 0.01 µM	> 100 µM and 34.9 µg/mL	–	> 100 µM	19.5 µM	> 100 µM	> 100 µM	235 nM and 33.7 µg/mL	–	–	–	–	–
COC(=O)C12OC3CO[Si](C(C)C)(C(C)C)O[Si](C(C)C)(C(C)C)OC3C1Oc1nc(=O)ccn12 (configuration not stated)	31.6 µM	28.6 µM	30.1 µM	72.9 µM	32.3 µM	30.4 µM	29 µM	–	31.2 µM	30 µM	–	7.3 µM	–	–	–	–
CCCCCCCCCCCCCCCCCCOCC(O)COP(=O)(O)OCC1OC(n2ccc(N)nc2=O)C(O)C1O (configuration not stated)	26.5 µM	> 100 µM	47.9 µM	30.8 µM	–	> 100 µM	> 100 µM	14.8 µM	24.6 µM	> 100 µM	41.8 µM	> 100 µM	–	–	–	–
O=c1oc2cc(O)ccc2c(O)c1Cc1c(O)c2ccc(O)cc2oc1=O	–	> 100 µM	> 100 µM	> 100 µM	> 100 µM	> 100 µM	> 100 µM	> 100 µM	> 100 µM	> 100 µM	–	> 100 µM	–	–	–	–
Cc1ccc(Nc2nc3c(=O)n(C)c(=O)n(C)c3nc2Nc2ccc(C)cc2)cc1	18.7 µM	52.9 µM	11.8 µM	> 100 µM	–	> 100 µM	31.2 µM	> 100 µM	> 100 µM	4.04 µM	2.42 µM	79.6 µM	–	–	–	–
O=C1c2ccccc2N2Oc3ccccc3C12c1ccccc1 (configuration not stated)	> 100 µM	> 100 µM	> 100 µM	> 100 µM	> 100 µM	> 100 µM	> 100 µM	–	> 100 µM	> 100 µM	> 100 µM	–	–	–	–	–
